According to article PMC7901650, “Garcinoic Acid Is a Natural and Selective Agonist of Pregnane X Receptor” (Journal of Medicinal Chemistry, 2020):

Key:
[1] = system: HepG2 cells; experiment: PXR, CYP3A4 and MDR1 expression in HepG2 cells; format: cell-based
Protocol: (§1) HepG2 (human hepatoma cell line; ATCC HB-8065, Manassas, VA) and HepaRG (HPRGC10, Thermo Fisher Scientific) cells were maintained in culture as previously described.[47] Experiments were performed between passages 2 and 10. Cell viability, clonogenic activity, and apoptotic cell death were assessed as previously described (see Figure S2).[58],[59] HT29 human colorectal adenocarcinoma cells (ATCC HTB-38) and its mucous-secreting HT29-MTX subclone (Sigma-Aldrich) were used as intestinal cell models. HT29 cells were cultured in RPMI (Invitrogen; Life Technologies) containing 10% FBS (v/v) and 1% (v/v) L-glutamine. HT29-MTX cells (from Sigma-Aldrich) were cultured in DMEM supplemented with 2 mM glutamine, 1% nonessential amino acids, and 10% FBS. Cells were maintained at 37 C in a humidified 5% (v/v) CO2 atmosphere chamber and were used between passages 10 and 20.
Cells were harvested and lysed in ice-cold cell lysis buffer (Cell Signaling Technology) and 20 μL/mL protease inhibitor cocktail (Roche). Murine tissues (10 mg each) were weighed and resuspended in 300 μL of PBS supplemented with NP40 (1:50) and a cocktail of protease inhibitors (Pierce, Thermo Fisher Scientific). After preliminary homogenation in a 1-mL potter, sonication was performed in ice (3 cycles of 15 s each with 1 min intervals). After incubation in ice for 1 h and centrifugation (12 000 rpm for 20 min at 4 °C), the supernatant was recovered, and total proteins were quantified by the BCA assay kit (Pierce, Thermo Fisher Scientific). […] The band intensity was analyzed using Gel Pro analyzer Software. […]
RNA was extracted using the RNeasy Plus Kit (QIAGEN, Valencia, CA) and quantified with Implen NanoPhotometer (GmbH Germany), and cDNA synthesis was carried out using SuperScript IV (Thermo Fisher Scientific, MA). […]

[2] = system: HepaRG cells; experiment: PXR protein expression in HepaRG cells; format: cell-based; settings: 24 h, 1 to 25 μM, compared with HepG2
Protocol: as §1, with “Cells were maintained at 37 C in a humidified 5% (v/v) CO2 atmosphere chamber and were used between passages 10 and 20.” left out
Cells were harvested and lysed in ice-cold cell lysis buffer (Cell Signaling Technology) and 20 μL/mL protease inhibitor cocktail (Roche). […] After incubation in ice for 1 h and centrifugation (12 000 rpm for 20 min at 4 °C), the supernatant was recovered, and total proteins were quantified by the BCA assay kit (Pierce, Thermo Fisher Scientific). […] The band intensity was analyzed using Gel Pro analyzer Software. […]
PXR protein was assessed by immunoblot (10 µg total protein loading) in HepaRG cells treated for 24 hrs with GA at concentrations between 1 and 25 μM (A). […]

C/C(=C\CC/C(C)=C/CC[C@]1(C)CCc2cc(O)cc(C)c2O1)CC/C=C(\C)C(=O)O [GA (1), (2E,6E,10E)-13-[(2R)-6-hydroxy-2,8-dimethyl-chroman-2-yl]-2,6,10-trimethyltrideca-2,6,10-trienoic acid]
MDR1 gene expression ([1]; HepG2, 1 to 50 μM): increased in a dose–dose-dependent manner | CYP3A4 protein and mRNA expression ([1]; HepG2, 24 h, 1 and 25 μM): increased in a dose–dose-dependent manner | PXR protein expression ([1]; HepG2, 24 h, 1 and 25 μM): increased in a dose–dose-dependent manner | PXR protein response [2]: Even higher
